Results published in ChEMBL document CHEMBL2150935, “Synthesis, biological evaluation and chemometric analysis of indazole derivatives. 1,2-Disubstituted 5-nitroindazolinones, new prototypes of antichagasic drug” (Eur J Med Chem, 2012).

How the values were obtained:
Trypanosoma cruzi [1] = test: Growth inhibition of epimastigote form of Trypanosoma cruzi CL-B5 at 64 uM after 72 hrs by lacZ reporter gene assay; type: functional; conditions: CL-B5, 72 h, read-out: GI
Trypanosoma cruzi [2] = test: Growth inhibition of epimastigote form of Trypanosoma cruzi CL-B5 at 256 uM after 72 hrs by lacZ reporter gene assay; type: functional; conditions: CL-B5, 72 h, read-out: GI
[3] = Growth inhibition of mouse J774 cells at 128 uM after 24 hrs by resazurin reduction assay; type: cell-based; conditions: read-out: GI
Trypanosoma cruzi [4] = test: Growth inhibition of epimastigote form of Trypanosoma cruzi CL-B5 at 128 uM after 72 hrs by lacZ reporter gene assay; type: functional; conditions: CL-B5, 72 h, read-out: GI
[5] = Growth inhibition of mouse J774 cells at 256 uM after 24 hrs by resazurin reduction assay; type: cell-based; conditions: read-out: GI
[6] = Growth inhibition of mouse J774 cells at 64 uM after 24 hrs by resazurin reduction assay; type: cell-based; conditions: read-out: GI

O=c1c2cc([N+](=O)[O-])ccc2n(Cc2ccccc2)n1Cc1ccccc1
inhibition of growth at 64 µM (Trypanosoma cruzi [1]): 74.5%
inhibition of growth at 256 µM (Trypanosoma cruzi [2]): 69.2%
inhibition at 24 h, 128 µM [3]: 64%
inhibition of growth at 128 µM (Trypanosoma cruzi [4]): 83.7%
inhibition at 24 h, 256 µM [5]: 57.9%
inhibition at 24 h, 64 µM [6]: 9.77%

Cn1c2ccc([N+](=O)[O-])cc2c(=O)n1Cc1ccccc1
inhibition of growth at 64 µM (Trypanosoma cruzi [1]): 83.3%
inhibition of growth at 256 µM (Trypanosoma cruzi [2]): 91.7%
inhibition at 24 h, 128 µM [3]: 29%
inhibition of growth at 128 µM (Trypanosoma cruzi [4]): 86%
inhibition at 24 h, 256 µM [5]: 0%
inhibition at 24 h, 64 µM [6]: 15.2%

CCCCCn1c2ccc([N+](=O)[O-])cc2c(=O)n1Cc1ccccc1
inhibition of growth at 64 µM (Trypanosoma cruzi [1]): 85.2%
inhibition of growth at 256 µM (Trypanosoma cruzi [2]): 90.2%
inhibition at 24 h, 128 µM [3]: 71.8%
inhibition of growth at 128 µM (Trypanosoma cruzi [4]): 90%
inhibition at 24 h, 256 µM [5]: 81%
inhibition at 24 h, 64 µM [6]: 54.1%

Cn1c2ccc([N+](=O)[O-])cc2c(=O)n1Cc1ccc2ccccc2c1
inhibition of growth at 64 µM (Trypanosoma cruzi [1]): 42.5%
inhibition of growth at 256 µM (Trypanosoma cruzi [2]): 37.7%
inhibition at 24 h, 128 µM [3]: 0%
inhibition of growth at 128 µM (Trypanosoma cruzi [4]): 40.9%
inhibition at 24 h, 256 µM [5]: 0%
inhibition at 24 h, 64 µM [6]: 0%

CCCn1c2ccc([N+](=O)[O-])cc2c(=O)n1Cc1ccc2ccccc2c1
inhibition of growth at 64 µM (Trypanosoma cruzi [1]): 78%
inhibition of growth at 256 µM (Trypanosoma cruzi [2]): 41.9%
inhibition at 24 h, 128 µM [3]: 11.9%
inhibition of growth at 128 µM (Trypanosoma cruzi [4]): 70.4%
inhibition at 24 h, 256 µM [5]: 15.5%
inhibition at 24 h, 64 µM [6]: 0%

CC(C)n1c2ccc([N+](=O)[O-])cc2c(=O)n1Cc1ccc2ccccc2c1
inhibition of growth at 64 µM (Trypanosoma cruzi [1]): 10.7%
inhibition of growth at 256 µM (Trypanosoma cruzi [2]): 24.2%
inhibition at 24 h, 128 µM [3]: 0%
inhibition of growth at 128 µM (Trypanosoma cruzi [4]): 13%
inhibition at 24 h, 256 µM [5]: 0%
inhibition at 24 h, 64 µM [6]: 0%

Cn1c(=O)c2cc([N+](=O)[O-])ccc2n1C
inhibition of growth at 64 µM (Trypanosoma cruzi [1]): 42.7%
inhibition of growth at 256 µM (Trypanosoma cruzi [2]): 68%
inhibition at 24 h, 128 µM [3]: 0%
inhibition of growth at 128 µM (Trypanosoma cruzi [4]): 42.8%
inhibition at 24 h, 256 µM [5]: 0%
inhibition at 24 h, 64 µM [6]: 11.4%

Cn1c(=O)c2cc([N+](=O)[O-])ccc2n1-c1ccccc1
inhibition of growth at 64 µM (Trypanosoma cruzi [1]): 14.2%
inhibition of growth at 256 µM (Trypanosoma cruzi [2]): 26.6%
inhibition of growth at 128 µM (Trypanosoma cruzi [4]): 19.4%
inhibition at 24 h, 256 µM [5]: 43.1%

CC(C)Oc1c2cc([N+](=O)[O-])ccc2nn1Cc1ccccc1
inhibition of growth at 64 µM (Trypanosoma cruzi [1]): 56.2%
inhibition of growth at 256 µM (Trypanosoma cruzi [2]): 70.8%
inhibition of growth at 128 µM (Trypanosoma cruzi [4]): 67.1%
inhibition at 24 h, 256 µM [5]: 41.4%

CCCCOc1c2cc([N+](=O)[O-])ccc2nn1Cc1ccccc1
inhibition of growth at 64 µM (Trypanosoma cruzi [1]): 24.6%
inhibition of growth at 256 µM (Trypanosoma cruzi [2]): 54.7%
inhibition of growth at 128 µM (Trypanosoma cruzi [4]): 48.5%
inhibition at 24 h, 256 µM [5]: 26.3%

O=[N+]([O-])c1ccc2nn(Cc3ccccc3)c(OCc3ccccc3)c2c1
inhibition of growth at 64 µM (Trypanosoma cruzi [1]): 51.8%
inhibition of growth at 256 µM (Trypanosoma cruzi [2]): 34.5%
inhibition at 24 h, 128 µM [3]: 15.2%
inhibition of growth at 128 µM (Trypanosoma cruzi [4]): 43.5%
inhibition at 24 h, 256 µM [5]: 64.7%

COc1c2cc([N+](=O)[O-])ccc2nn1Cc1ccc2ccccc2c1
inhibition of growth at 64 µM (Trypanosoma cruzi [1]): 27%
inhibition of growth at 256 µM (Trypanosoma cruzi [2]): 72.5%
inhibition of growth at 128 µM (Trypanosoma cruzi [4]): 35.6%
inhibition at 24 h, 256 µM [5]: 9.31%

CC(C)Oc1c2cc([N+](=O)[O-])ccc2nn1Cc1ccc2ccccc2c1
inhibition of growth at 64 µM (Trypanosoma cruzi [1]): 76.5%
inhibition of growth at 256 µM (Trypanosoma cruzi [2]): 63.7%
inhibition of growth at 128 µM (Trypanosoma cruzi [4]): 76.6%
inhibition at 24 h, 64 µM [6]: 26.5%

COc1c2cc([N+](=O)[O-])ccc2nn1-c1ccccc1
inhibition of growth at 64 µM (Trypanosoma cruzi [1]): 0%
inhibition of growth at 256 µM (Trypanosoma cruzi [2]): 2.81%
inhibition of growth at 128 µM (Trypanosoma cruzi [4]): 0%

CC(C)Oc1c2cc([N+](=O)[O-])ccc2nn1-c1ccccc1
inhibition of growth at 64 µM (Trypanosoma cruzi [1]): 20.7%
inhibition of growth at 256 µM (Trypanosoma cruzi [2]): 6.26%
inhibition of growth at 128 µM (Trypanosoma cruzi [4]): 11.3%

Cn1nc(OCc2ccc3ccccc3c2)c2cc([N+](=O)[O-])ccc21
inhibition of growth at 64 µM (Trypanosoma cruzi [1]): 46.4%
inhibition of growth at 256 µM (Trypanosoma cruzi [2]): 11.3%
inhibition at 24 h, 128 µM [3]: 9%
inhibition of growth at 128 µM (Trypanosoma cruzi [4]): 23.6%
inhibition at 24 h, 64 µM [6]: 13.3%

COc1nn(-c2ccccc2)c2ccc([N+](=O)[O-])cc12
inhibition of growth at 64 µM (Trypanosoma cruzi [1]): 21.4%
inhibition of growth at 256 µM (Trypanosoma cruzi [2]): 56.3%
inhibition of growth at 128 µM (Trypanosoma cruzi [4]): 40.3%
inhibition at 24 h, 256 µM [5]: 27.1%

Cn1c2ccccc2c(=O)n1Cc1ccccc1
inhibition of growth at 64 µM (Trypanosoma cruzi [1]): 28%
inhibition of growth at 256 µM (Trypanosoma cruzi [2]): 55.8%
inhibition of growth at 128 µM (Trypanosoma cruzi [4]): 36.6%
